Legend:
[1] = Cytotoxicity against human GES1 cells assessed as inhibition of cell proliferation incubated for 48 hrs by MTT assay; assay type: toxicity, cell-based
BGC-823 = test: Antiproliferative activity against human BGC-823 cells assessed as inhibition of cell proliferation incubated for 48 hrs by MTT assay; assay type: functional, cell-based; conditions: BGC-823, 48 h
[2] = Cytotoxicity against human L02 cells assessed as inhibition of cell proliferation incubated for 48 hrs by MTT assay; assay type: toxicity, cell-based
HepG2 = test: Antiproliferative activity against human HepG2 cells assessed as inhibition of cell proliferation incubated for 48 hrs by MTT assay; assay type: functional, cell-based; conditions: HepG2, 48 h
MCF7 = test: Antiproliferative activity against human MCF7 cells assessed as inhibition of cell proliferation incubated for 48 hrs by MTT assay; assay type: functional, cell-based; conditions: MCF7, 48 h
[3] = Cytotoxicity against human MCF-10A cells assessed as inhibition of cell proliferation incubated for 48 hrs by MTT assay; assay type: toxicity, cell-based

| Structure (SMILES) | IC50 at 48 h [1] [µM] | IC50 (BGC-823) [µM] | IC50 at 48 h [2] [µM] | IC50 (HepG2) [µM] | IC50 (MCF7) [µM] | IC50 at 48 h [3] [µM] |
| --- | --- | --- | --- | --- | --- | --- |
| CC1(C)CC[C@]2(C(=O)OCCCOc3ccc(NC(=O)OCc4ccc(B5OC(C)(C)C(C)(C)O5)cc4)cc3)CC[C@]3(C)[C@H](C(=O)C=C4[C@@]5(C)C=C(C#N)C(=O)C(C)(C)[C@@H]5CC[C@]43C)[C@@H]2C1 | 1.5 | 1.2 | 3.5 | 2.8 | 1.1 | 1.8 |
| CC1(C)CC[C@]2(C(=O)OCCOC(=O)c3ccc(OCc4ccc(B5OC(C)(C)C(C)(C)O5)cc4)cc3)CC[C@]3(C)[C@H](C(=O)C=C4[C@@]5(C)C=C(C#N)C(=O)C(C)(C)[C@@H]5CC[C@]43C)[C@@H]2C1 | 4.7 | 3.8 | 5 | 3.6 | 2.9 | 4 |
| CC1(C)CC[C@]2(C(=O)OCCCOC(=O)Cc3ccc(OCc4ccc(B5OC(C)(C)C(C)(C)O5)cc4)cc3)CC[C@]3(C)[C@H](C(=O)C=C4[C@@]5(C)C=C(C#N)C(=O)C(C)(C)[C@@H]5CC[C@]43C)[C@@H]2C1 | 2.2 | 1.6 | 4.1 | 2.5 | 1.4 | 2.5 |
| COc1ccc(/C=C/CC(=O)OCCCOC(=O)[C@]23CCC(C)(C)C[C@H]2[C@H]2C(=O)C=C4[C@@]5(C)C=C(C#N)C(=O)C(C)(C)[C@@H]5CC[C@@]4(C)[C@]2(C)CC3)cc1OCc1ccc(B2OC(C)(C)C(C)(C)O2)cc1 | 6.6 | 5.5 | 5 | 3.6 | 3.5 | 4 |
| CC1(C)CC[C@]2(C(=O)OCCCCCCOC(=O)c3ccc(OCc4ccc(B5OC(C)(C)C(C)(C)O5)cc4)cc3)CC[C@]3(C)[C@H](C(=O)C=C4[C@@]5(C)C=C(C#N)C(=O)C(C)(C)[C@@H]5CC[C@]43C)[C@@H]2C1 | 4.7 | 3.2 | 6.4 | 65 | 2.4 | 3.3 |
| COc1cc(C(=O)OCCCCOC(=O)[C@]23CCC(C)(C)C[C@H]2[C@H]2C(=O)C=C4[C@@]5(C)C=C(C#N)C(=O)C(C)(C)[C@@H]5CC[C@@]4(C)[C@]2(C)CC3)ccc1OCc1ccc(B2OC(C)(C)C(C)(C)O2)cc1 | 9.2 | 8.3 | 15.6 | 15.5 | 12.9 | 12.4 |
| CC1(C)CC[C@]2(C(=O)OCCc3ccc(OCc4ccc(B5OC(C)(C)C(C)(C)O5)cc4)cc3)CC[C@]3(C)[C@H](C(=O)C=C4[C@@]5(C)C=C(C#N)C(=O)C(C)(C)[C@@H]5CC[C@]43C)[C@@H]2C1 | 0.8 | 0.7 | 2.1 | 2 | 1 | 1.7 |
| CC1(C)CC[C@]2(C(=O)OCCCOC(=O)c3ccc(OCc4ccc(B5OC(C)(C)C(C)(C)O5)cc4)cc3)CC[C@]3(C)[C@H](C(=O)C=C4[C@@]5(C)C=C(C#N)C(=O)C(C)(C)[C@@H]5CC[C@]43C)[C@@H]2C1 | 2.7 | 2 | 3.6 | 3 | 1.5 | 3.1 |
| CC1(C)CC[C@]2(C(=O)OCCCOC(=O)C/C=C/c3ccc(OCc4ccc(B5OC(C)(C)C(C)(C)O5)cc4)cc3)CC[C@]3(C)[C@H](C(=O)C=C4[C@@]5(C)C=C(C#N)C(=O)C(C)(C)[C@@H]5CC[C@]43C)[C@@H]2C1 | 6.9 | 8.7 | 3.3 | 6.5 | 9.9 | 18.3 |
| COc1cc(C(=O)OCCCCOC(=O)[C@]23CCC(C)(C)C[C@H]2[C@H]2C(=O)C=C4[C@@]5(C)C=C(C#N)C(=O)C(C)(C)[C@@H]5CC[C@@]4(C)[C@]2(C)CC3)cc(OC)c1OCc1ccc(B2OC(C)(C)C(C)(C)O2)cc1 | 4.2 | 3.5 | 6.1 | 5.4 | 3.5 | 4 |
